Measurements taken from patent US20050276867A1, “Stabilized compositions comprising a therapeutically active agent and an oxidizing preservative” (ALLERGAN, INC., priority 2004, published 2005).

Experiments:
[1] = for Stabilized Chlorine Dioxide Concentration, 0 Days / Stabilized Chlorine Dioxide Concentration, 7 Days / Stabilized Chlorine Dioxide Concentration, 14 Days: ingredient added at ppm shown (100) to brimonidine composition; for Stabilization of chlorine dioxide by the excipient (in words): summary of Table 1
Experimental: Each of the excipients was added, in the amounts shown, to a proprietary composition comprising brimonidine as a therapeutically active agent.

[2] = chlorine dioxide to ClO2-; permanganate to manganese dioxide; cited from earlier work

| Compound | Stabilized Chlorine Dioxide Concentration, 0 Days [1] [ppm] | Stabilized Chlorine Dioxide Concentration, 7 Days [1] [ppm] | Stabilized Chlorine Dioxide Concentration, 14 Days [1] [ppm] | Stabilization of chlorine dioxide by the excipient (in words) [1] | Standard reduction potential [2] [V] |
| --- | --- | --- | --- | --- | --- |
| O=C(O)CN(CCN(CC(=O)O)CC(=O)O)CC(=O)O [EDTA] | 44 | 2 | 0 | do not stabilize the chlorine dioxide | – |
| NCCN [Ethylene diamine] | – | – | – | do not stabilize the chlorine dioxide | – |
| O=C([O-])/C(O)=C(\O)C(=O)[O-].[Na+].[Na+] [Sodium Dihydroxyfurmarate] | 37 | 13 | 0 | – | – |
| O=C[O-].[Na+] [Sodium Formate] | 42 | 40 | 36 | – | – |
| CC(O)C(=O)[O-].[Na+] (centres unmarked) [Sodium Lactate] | 45 | 40 | 37 | – | – |
| O=C([O-])C(=O)[O-].[Na+].[Na+] [Sodium Oxalate] | 39 | 38 | 35 | ineffective | – |
| CC(=O)C(=O)[O-].[Na+] [Sodium Pyruvate] | – | – | – | ineffective | – |
| [O][Cl+][O-] [chlorine dioxide] | – | – | – | – | 1.07 |
